In patent US20060111305A1, “Metabolites of certain [1,4]diazepino[6,7,1-ij]quinoline derivatives and methods of preparation and use thereof” (Wyeth, priority 2004, published 2006):

How the values were obtained:
[1] = Metabolite profiles of DCDQ in human plasma and urine by LC/MS (Table 33); type: in vivo, healthy human subjects; settings: human plasma and urine, healthy subjects receiving DCDQ
Protocol: Drug administration and specimen collection were performed in a randomized, double-blinded, placebo-controlled, ascending single dose study of the safety, tolerability, pharmacokinetics, and pharmacodynamics of DCDQ administered orally to healthy subjects and subjects with schizophrenia and schizoaffective disorder. The specimens were stored at approximately −70° C. until analysis for metabolite profiles and for ratios of carbamoyl glucuronide (M6) to DCDQ.
Two subjects with medium and high exposure to DCDQ in the 25 mg multiple ascending dose study were also analyzed by LC/MS for metabolite profiles. The 8 hr plasma samples collected on day 1 and day 14 from subjects 9 and 41 were processed and analyzed as described below. No internal standard was added to the samples analyzed for metabolite profiles.
LC/MS System 1 was used for analysis of plasma and urine samples for metabolite characterization. The HPLC equipment used with this LC/MS System consisted of an Agilent Model 1100 HPLC system (Agilent Technologies, Palo Alto, Calif.) including an autosampler, binary pump and diode array UV detector. The UV detector was set to monitor 210 to 350 nm. The HPLC mobile phase consisted of 10 mM ammonium acetate, pH 4.5 (A) and methanol (B), and was delivered at 0.2 mL/min. The linear mobile phase gradient (HPLC Gradient 1) is shown below. During LC/MS sample analysis, up to 6 min of the initial flow was diverted away from the mass spectrometer prior to evaluation of metabolites.
The mass spectrometer used for metabolite characterization with LC/MS System 1 was a Finnigan LCQ-Deca ion trap mass spectrometer (Thermo Electron, San Jose, Calif.). This mass spectrometer was equipped with an electrospray ionization (ESI) interface and operated in the positive ionization mode. Settings for the LCQ mass spectrometer are listed below.
LC/MS System 2 was used to provide additional MS/MS data for characterization of DCDQ metabolites in urine. The HPLC equipment used with LC/MS System 2 consisted of a Waters model 2695 HPLC system (Waters Corp., Milford, Mass.). It was equipped with a built-in autosampler and a model 996 diode array UV detector. The UV detector was set to monitor 210-400 nm. The HPLC column, mobile phases, flow rate, diversion of flow away from the mass spectrometer and gradient were as described above for LC/MS System 1. The column temperature was 25° C.
The mass spectrometer used for metabolite characterization with LC/MS System 2 was a Micromass Quattro Micro triple quadrupole mass spectrometer (Waters Corp.). This mass spectrometer was equipped with an electrospray interface and operated in the positive ionization mode. Settings for this mass spectrometer are listed below.

[2] = Metabolites of DCDQ generated by liver microsomes and hepatocytes, LC/MS characterization (Table 6); type: in vitro ADME; settings: MM mouse, RM rat, DM dog, HM human liver microsomes; HH human hepatocytes
Source text: An Agilent Model 1100 HPLC system (Agilent Technologies, Palo Alto, Calif.) including an autosampler and diode array UV detector was used for LC/MS analysis. The UV detector was set to monitor 200 to 400 nm. For selected LC/MS analysis, radiochromatograms were acquired using a β-Ram model 3 radioactivity flow detector (IN/US Systems Inc., Tampa, Fla.) equipped with a solid scintillant flow cell. Separations were accomplished on a Phenomenex Luna C18(2) column (2×150 mm, 5 μm) under the same conditions as described above.
The mass spectrometer used for metabolite characterization was a Micromass Q-TOF-2 quadrupole time-of-flight hybrid mass spectrometer ([…].). The mass spectrometer was equipped with an electrospray ionization (ESI) interface and operated in the positive ionization mode. Collision energy settings of 5 and 30 eV were used for full MS and MS/MS scans, respectively. Settings for the mass spectrometer are listed below.
Mass spectra were obtained by LC/MS and LC/MS/MS analysis for DCDQ and its metabolites.

[3] = tested on: cryopreserved human hepatocytes; assay: Incubation of [14C]DCDQ with cryopreserved human hepatocytes; type: in vitro ADME; settings: 10 or 50 μM DCDQ, 4 hours
Protocol: Vials containing cryopreserved human hepatocytes were thawed in a 37° C. water bath with gentle shaking until the ice was almost melted. The vials were removed from the water bath and gentle shaking continued at room temperature for 30-60 seconds until completely thawed. The hepatocyte suspensions from each vial were immediately transferred to pre-cooled 50 mL beakers on ice. To each beaker, 12 mL of ice-cold hepatocyte suspension media was added dropwise over one minute, with occasional, gentle shaking by hand to prevent the cells from settling. The cell suspensions were transferred to a 15 mL tube and centrifuged at 100 g force for 3 min at 4° C. (Model T21 super centrifuge, Sorvall). The supernatant was discarded and the pellets were re-suspended in 4 mL of ice-cold hepatocyte culture media. The cell suspensions contained approximately 3.1×10^6 viable hepatocytes/mL. The average viability was 76.0% as determined using Trypan Blue exclusion and a hemacytometer.
The cell suspensions were distributed into 12-well plates at 1.0 mL per well. Incubations were performed using pooled hepatocytes from two donors. [^14C]DCDQ in water was added to the hepatocyte suspension at a final concentration of 10 or 50 μM. Incubations were carried out at 37° C. for 4 hours in an incubator supplied with 5% CO2. At the end of the incubation, the reaction was stopped by the addition of 200 μL cold methanol to each well. The content of each well was transferred to a 15 mL centrifuge tube and sonicated for 30 seconds. After vortex mixing with 6 mL methanol and then centrifugation, the supernatant was transferred to a clean tube and evaporated to about 0.5 mL in a TurboVap evaporator. The residue was analyzed by HPLC and LC/MS.
A Waters model 2690 HPLC system (Waters Corp., Milford, Mass.) with a built-in autosampler was used for analysis. […] A variable wavelength UV detector set to monitor 250 nm and Flo-One β Model A525 radioactivity flow detector (Perkin Elmer) with a 250 μL LQTR flow cell were used for data acquisition. […]

## C1=NCCN2C[C@@H]3CCC[C@@H]3c3cccc1c32 [Metabolite P3, DCDQ imine]
[1]
  Matrix (in which DCDQ / metabolite was characterized by LC/MS): P, U
[2]
  Source: MM, RM, DM, HM, HH
[3]
  metabolite detected in human hepatocyte incubations: observed
